Assay results published in PubChem BioAssay (NCI).
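The compound was tested at five concentrations on cells cultured in 96-well plates, with a 48-hour exposure period. At the GI50, growth is halved. At the TGI there is no net growth.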

Experiments:
Test in all cases: inhibition of tumour cell growth, NCI panel, 48 h
HOP-62 NSCLC = system: HOP-62 NSCLC
LOX IMVI melanoma = system: LOX IMVI melanoma
MOLT-4 leukemia = system: MOLT-4 leukemia
SK-MEL-2 melanoma = system: SK-MEL-2 melanoma
T-47D breast = system: T-47D breast
NCI-H522 lung = system: NCI-H522 lung
EKVX NSCLC = system: EKVX NSCLC
UO-31 renal = system: UO-31 renal
HOP-92 NSCLC = system: HOP-92 NSCLC
COLO 205 colon = system: COLO 205 colon
RXF 393 renal = system: RXF 393 renal
MDA-MB-435 = system: MDA-MB-435
HCT-116 colon = system: HCT-116 colon
SF-295 CNS = system: SF-295 CNS
KM12 colon = system: KM12 colon
A498 renal = system: A498 renal
MCF7 breast = system: MCF7 breast
U251 CNS = system: U251 CNS
HCC-2998 colon = system: HCC-2998 colon
DU-145 prostate = system: DU-145 prostate
SN12C renal = system: SN12C renal
OVCAR-4 ovarian = system: OVCAR-4 ovarian
IGROV1 ovarian = system: IGROV1 ovarian
HCT-15 colon = system: HCT-15 colon
SK-MEL-28 melanoma = system: SK-MEL-28 melanoma
SW-620 colon = system: SW-620 colon
SF-268 CNS = system: SF-268 CNS
UACC-257 melanoma = system: UACC-257 melanoma
A549 NSCLC = system: A549 NSCLC
UACC-62 melanoma = system: UACC-62 melanoma
MALME-3M melanoma = system: MALME-3M melanoma
HT29 colon = system: HT29 colon
CAKI-1 renal = system: CAKI-1 renal
NCI-H460 lung = system: NCI-H460 lung
BT-549 breast = system: BT-549 breast
HS 578T breast = system: HS 578T breast
OVCAR-3 ovarian = system: OVCAR-3 ovarian
HL-60(TB) leukemia = system: HL-60(TB) leukemia
ACHN renal = system: ACHN renal
SNB-75 CNS = system: SNB-75 CNS
TK-10 renal = system: TK-10 renal
SK-MEL-5 melanoma = system: SK-MEL-5 melanoma
786-0 renal = system: 786-0 renal
NCI-H23 lung = system: NCI-H23 lung
M14 melanoma = system: M14 melanoma
OVCAR-5 ovarian = system: OVCAR-5 ovarian
PC-3 prostate = system: PC-3 prostate
NCI-H226 lung = system: NCI-H226 lung
SF-539 CNS = system: SF-539 CNS
MDA-MB-231 breast = system: MDA-MB-231 breast
SNB-19 CNS = system: SNB-19 CNS

COc1ccc2nc(NCCCNCCO)c3sc4ccc(F)cc4c(=O)c3c2c1
GI50 (HOP-62 NSCLC): 1620 nM
TGI (HOP-62 NSCLC): 3260 nM
GI50 (LOX IMVI melanoma): 1480 nM
TGI (LOX IMVI melanoma): 2900 nM
GI50 (MOLT-4 leukemia): 1850 nM
TGI (MOLT-4 leukemia): 3970 nM
GI50 (SK-MEL-2 melanoma): 1920 nM
TGI (SK-MEL-2 melanoma): 3950 nM
GI50 (T-47D breast): 1680 nM
TGI (T-47D breast): 3930 nM
GI50 (NCI-H522 lung): 1770 nM
TGI (NCI-H522 lung): 3550 nM
GI50 (EKVX NSCLC): 1450 nM
TGI (EKVX NSCLC): 2940 nM
GI50 (UO-31 renal): 1460 nM
TGI (UO-31 renal): 2800 nM
GI50 (HOP-92 NSCLC): 1100 nM
TGI (HOP-92 NSCLC): 2450 nM
GI50 (COLO 205 colon): 1800 nM
TGI (COLO 205 colon): 3770 nM
GI50 (RXF 393 renal): 1260 nM
TGI (RXF 393 renal): 2610 nM
GI50 (MDA-MB-435): 1660 nM
TGI (MDA-MB-435): 3100 nM
GI50 (HCT-116 colon): 1470 nM
TGI (HCT-116 colon): 2860 nM
GI50 (SF-295 CNS): 1730 nM
TGI (SF-295 CNS): 3220 nM
GI50 (KM12 colon): 1810 nM
TGI (KM12 colon): 3520 nM
GI50 (A498 renal): 1530 nM
TGI (A498 renal): 2980 nM
GI50 (MCF7 breast): 1790 nM
TGI (MCF7 breast): 3530 nM
GI50 (U251 CNS): 1620 nM
TGI (U251 CNS): 3380 nM
GI50 (HCC-2998 colon): 1760 nM
TGI (HCC-2998 colon): 3610 nM
GI50 (DU-145 prostate): 1600 nM
TGI (DU-145 prostate): 3040 nM
GI50 (SN12C renal): 1560 nM
TGI (SN12C renal): 3030 nM
GI50 (OVCAR-4 ovarian): 1760 nM
TGI (OVCAR-4 ovarian): 3430 nM
GI50 (IGROV1 ovarian): 1250 nM
TGI (IGROV1 ovarian): 2630 nM
GI50 (HCT-15 colon): 1280 nM
TGI (HCT-15 colon): 2640 nM
GI50 (SK-MEL-28 melanoma): 1780 nM
TGI (SK-MEL-28 melanoma): 3210 nM
GI50 (SW-620 colon): 1530 nM
TGI (SW-620 colon): 3040 nM
GI50 (SF-268 CNS): 1450 nM
TGI (SF-268 CNS): 3150 nM
GI50 (UACC-257 melanoma): 1890 nM
TGI (UACC-257 melanoma): 4040 nM
GI50 (A549 NSCLC): 1600 nM
TGI (A549 NSCLC): 3640 nM
GI50 (UACC-62 melanoma): 1760 nM
TGI (UACC-62 melanoma): 3290 nM
GI50 (MALME-3M melanoma): 1690 nM
TGI (MALME-3M melanoma): 3230 nM
GI50 (HT29 colon): 1580 nM
TGI (HT29 colon): 3230 nM
GI50 (CAKI-1 renal): 1580 nM
TGI (CAKI-1 renal): 2980 nM
GI50 (NCI-H460 lung): 1530 nM
TGI (NCI-H460 lung): 3020 nM
GI50 (BT-549 breast): 12800 nM
TGI (BT-549 breast): 31700 nM
GI50 (HS 578T breast): 1600 nM
TGI (HS 578T breast): 3570 nM
GI50 (OVCAR-3 ovarian): 1800 nM
TGI (OVCAR-3 ovarian): 3380 nM
GI50 (HL-60(TB) leukemia): 1920 nM
TGI (HL-60(TB) leukemia): 3870 nM
GI50 (ACHN renal): 1630 nM
TGI (ACHN renal): 2990 nM
GI50 (SNB-75 CNS): 1550 nM
TGI (SNB-75 CNS): 3050 nM
GI50 (TK-10 renal): 1720 nM
TGI (TK-10 renal): 3300 nM
GI50 (SK-MEL-5 melanoma): 1730 nM
TGI (SK-MEL-5 melanoma): 3140 nM
GI50 (786-0 renal): 1380 nM
TGI (786-0 renal): 2820 nM
GI50 (NCI-H23 lung): 1730 nM
TGI (NCI-H23 lung): 3270 nM
GI50 (M14 melanoma): 1850 nM
TGI (M14 melanoma): 3480 nM
GI50 (OVCAR-5 ovarian): 1500 nM
TGI (OVCAR-5 ovarian): 2870 nM
GI50 (PC-3 prostate): 1560 nM
TGI (PC-3 prostate): 3040 nM
GI50 (NCI-H226 lung): 1740 nM
TGI (NCI-H226 lung): 3490 nM
GI50 (SF-539 CNS): 1710 nM
TGI (SF-539 CNS): 3180 nM
GI50 (MDA-MB-231 breast): 1430 nM
TGI (MDA-MB-231 breast): 2840 nM
GI50 (SNB-19 CNS): 1700 nM
TGI (SNB-19 CNS): 3200 nM
